Measurements reported in a compilation of properties of binary mixtures (doi:10.1016/j.molliq.2019.03.144).

Test: xn = mol fraction of the nth substance listed
Details: 96.7 kPa

c1ccncc1 + CC(=O)[O-].CC[n+]1ccn(C)c1
x2 = 0
Details	viscosity [mPa·s]
303.15 K	0.843
313.15 K	0.741
323.15 K	0.658
333.15 K	0.59
343.15 K	0.533
353.15 K	0.485

CC(=O)[O-].CC[n+]1ccn(C)c1 + c1ccncc1
viscosity [mPa·s]
Details	x1 = 0.166	x1 = 0.318	x1 = 0.411	x1 = 0.52	x1 = 0.649	x1 = 0.806	x1 = 0.898	x1 = 1
303.15 K	2.54	5.96	–	15.7	27.5	51	72.6	103.2
308.15 K	–	5.29	8.29	–	22.7	–	–	76.1
313.15 K	2.12	4.72	7.27	11.55	19	33.1	44.7	59.6
318.15 K	1.95	4.22	6.42	9.99	16.09	27	36	47.4
323.15 K	1.797	3.82	5.71	–	13.77	22.7	–	38.4
328.15 K	1.671	–	5.11	7.68	11.88	–	24.5	31.5
333.15 K	1.552	–	4.6	6.82	–	16.33	20.6	–
338.15 K	1.453	–	4.16	6.09	9.11	14.04	17.63	22
343.15 K	–	2.65	–	5.47	–	12.35	15.11	–
348.15 K	1.278	2.45	3.46	4.96	7.18	10.77	13.26	16.25
353.15 K	1.203	–	3.18	4.48	6.45	9.52	11.59	14.03
